What was measured:
[1] = Antioxidant activity assessed as total reducing activity after 30 mins by spectrophotometric analysis; assay type: functional
[2] = Antioxidant activity assessed as ferric ion reducing ability by spectrophotometric analysis; assay type: functional
[3] = Antioxidant activity assessed as EDTA chelating effect after 10 mins by spectrophotometric analysis; assay type: functional
[4] = tested on: Radical scavenging activity; assay: Antioxidant activity assessed as DPPH free radical scavenging activity after 30 mins by spectrophotometric analysis; assay type: functional
[5] = Antioxidant activity assessed as nitric oxide scavenging activity after 150 mins by spectrophotometric analysis; assay type: functional; parameters: concentration or dose not given beside the values
[6] = Antioxidant activity assessed as super oxide scavenging activity after 150 mins by spectrophotometric analysis; assay type: functional; parameters: concentration or dose not given beside the values
Rattus norvegicus [7] = assay: Toxicity in Wistar rat assessed as incidence of convulsion at 200 mg/kg, po measured after 24 hrs; assay type: organism-based; parameters: dose 200 mg/kg, route oral; conditions: in vivo
Rattus norvegicus [8] = assay: Toxicity in Wistar rat assessed as incidence of tremor at 200 mg/kg, po measured after 24 hrs; assay type: organism-based; parameters: dose 200 mg/kg, route oral; conditions: in vivo
Rattus norvegicus [9] = assay: Toxicity in Wistar rat assessed as grip strength at 200 mg/kg, po measured after 24 hrs; assay type: organism-based; parameters: dose 200 mg/kg, route oral; conditions: in vivo
Rattus norvegicus [10] = assay: Toxicity in Wistar rat assessed as pupil dilatation at 200 mg/kg, po measured after 24 hrs; assay type: organism-based; parameters: dose 200 mg/kg, route oral; conditions: in vivo
Rattus norvegicus [11] = assay: Toxicity in Wistar rat fed 4 hrs post dosing assessed as incidence of adverse effects at 2 mg/kg, po administered as single dose measured on day one; assay type: organism-based; parameters: dose 2 mg/kg, route oral; conditions: in vivo
Rattus norvegicus [12] = assay: Toxicity in Wistar rat fed 4 hrs post dosing assessed as incidence of adverse effects at 2 mg/kg, po administered as single dose measured on day 14; assay type: organism-based; parameters: dose 2 mg/kg, route oral; conditions: in vivo
[13] = Toxicity in po dosed Wistar rat; assay type: organism-based; conditions: in vivo

| SMILES | Activity [1] | Activity [2] | Activity [3] | Activity [4] | Activity [5] | Activity [6] | Activity (Rattus norvegicus [7]) | Activity (Rattus norvegicus [8]) | Activity (Rattus norvegicus [9]) | Activity (Rattus norvegicus [10]) | Activity (Rattus norvegicus [11]) | Activity (Rattus norvegicus [12]) | MTD [13] |
| --- | --- | --- | --- | --- | --- | --- | --- | --- | --- | --- | --- | --- | --- |
| Cc1noc2c1c(=O)[nH]c1ccccc12 | 4010 µmol | 169 mmol | 4.9 mg | 466 µg | 40.3% | 16.6% | – | – | – | – | – | – | – |
| Cc1[nH]nc2c1c(=O)[nH]c1ccccc12 | 1230 µmol | 150 mmol | 10.4 mg | 1110 µg | 18.5% | 8.7% | – | – | – | – | – | – | – |
| Cc1nc(=S)[nH]c2c1c(=O)[nH]c1ccccc12 | 3630 µmol | 145 mmol | 9.6 mg | 1040 µg | 12% | 22.4% | – | – | – | – | – | – | – |
| CC1=NNC(=S)Nc2c1c(=O)[nH]c1ccccc21 | 2650 µmol | – | 9.1 mg | 752 µg | 61.6% | 74.5% | Toxic | Toxic | Toxic | Toxic | Non-toxic | Non-toxic | 2000 mg/kg |
| COc1ccc(O)c(C(C)(C)C)c1.COc1ccc(O)cc1C(C)(C)C | 8050 µmol | – | 16.1 mg | 170 µg | 79.1% | 76.5% | – | – | – | – | – | – | – |
| Cc1nc(=O)[nH]c2c1c(=O)[nH]c1ccccc12 | 3880 µmol | 205 mmol | 10.7 mg | 1410 µg | 62.3% | 38% | Toxic | Toxic | Toxic | Toxic | Non-toxic | Non-toxic | 2000 mg/kg |
| Cc1cc(C(C)(C)C)c(O)c(C(C)(C)C)c1 | 13100 µmol | 134 mmol | 13.2 mg | 150 µg | 92.1% | 87.1% | – | – | – | – | – | – | – |
| CC1=NNC(=O)Nc2c1c(=O)[nH]c1ccccc21 | 2590 µmol | – | 12.3 mg | 540 µg | 16.1% | 40.9% | – | – | – | – | – | – | – |
